Experimental data taken from patent US7803930B2, “Antisense modulation of apolipoprotein B-expression” (Isis Pharmaceuticals, Inc., priority 2002, dated 2010).
In the oligonucleotide strings, read from the 5' end, every base follows the letter of its sugar. An asterisk marks phosphorothioate; unmarked linkages are phosphodiester. Other units and linkages are bracketed, terminal groups are in braces. A string of capitals states the bases alone. e = 2'-O-(2-methoxyethyl) (MOE); [5mC] = 5-methylcytosine; d = 2'-deoxy (DNA)

system: human apolipoprotein B mRNA; assay: Inhibition of human apolipoprotein B mRNA levels in HepG2 cells, quantitative real-time PCR; type: cell-based; conditions: HepG2 cells treated with 150 nM of compound; averages from two experiments; quantitative real-time PCR
Experimental: The human hepatoblastoma cell line HepG2 was obtained from the American Type Culture Collection (Manassas, Va.). HepG2 cells were routinely cultured in Eagle's MEM supplemented with 10% fetal calf serum, non-essential amino acids, and 1 mM sodium pyruvate (Gibco/Life Technologies, Gaithersburg, Md.). Cells were routinely passaged by trypsinization and dilution when they reached 90% confluence. Cells were seeded into 96-well plates (Falcon-Primaria #3872) at a density of 7000 cells/well for use in RT-PCR analysis.
When cells reached 80% confluency, they were treated with oligonucleotide. For cells grown in 96-well plates, wells were washed once with 200 μL OPTI-MEM™-1 reduced-serum medium (Gibco BRL) and then treated with 130 μL of OPTI-MEM™-1 containing 3.75 μg/mL LIPOFECTIN™ (Gibco BRL) and the desired concentration of oligonucleotide. After 4-7 hours of treatment, the medium was replaced with fresh medium. Cells were harvested 16-24 hours after oligonucleotide treatment.
Quantitation of apolipoprotein B mRNA levels was determined by real-time quantitative PCR using the ABI PRISM™ 7700 Sequence Detection System (PE-Applied Biosystems, Foster City, Calif.) according to manufacturer's instructions. This is a closed-tube, non-gel-based, fluorescence detection system which allows high-throughput quantitation of polymerase chain reaction (PCR) products in real-time. As opposed to standard PCR, in which amplification products are quantitated after the PCR is completed, products in real-time quantitative PCR are quantitated as they accumulate. This is accomplished by including in the PCR reaction an oligonucleotide probe that anneals specifically between the forward and reverse PCR primers, and contains two fluorescent dyes. A reporter dye (e.g., JOE, FAM, or VIC, obtained from either Operon Technologies Inc., Alameda, Calif. or PE-Applied Biosystems, Foster City, Calif.) is attached to the 5′ end of the probe and a quencher dye (e.g., TAMRA, obtained from either Operon Technologies Inc., Alameda, Calif. or PE-Applied Biosystems, Foster City, Calif.) is attached to the 3′ end of the probe. When the probe and dyes are intact, reporter dye emission is quenched by the proximity of the 3′ quencher dye. During amplification, annealing of the probe to the target sequence creates a substrate that can be cleaved by the 5′-exonuclease activity of Taq polymerase. […] With each cycle, additional reporter dye molecules are cleaved from their respective probes, and the fluorescence intensity is monitored at regular intervals by laser optics built into the ABI PRISM™ 7700 Sequence Detection System. In each assay, a series of parallel reactions containing serial dilutions of mRNA from untreated control samples generates a standard curve that is used to quantitate the percent inhibition after antisense oligonucleotide treatment of test samples.
PCR reagents were obtained from PE-Applied Biosystems, Foster City, Calif. RT-PCR reactions were carried out by adding 25 μL PCR cocktail (1× TAQMAN™ buffer A, 5.5 mM MgCl2, 300 μM each of DATP, dCTP and dGTP, 600 μM of dUTP, 100 nM each of forward primer, reverse primer, and probe, 20 Units RNAse inhibitor, 1.25 Units AMPLITAQ GOLD™, and 12.5 Units MuLV reverse transcriptase) to 96 well plates containing 25 μL total RNA solution. The RT reaction was carried out by incubation for 30 minutes at 48° C. Following a 10 minute incubation at 95° C. to activate the AMPLITAQ GOLD™, 40 cycles of a two-step PCR protocol were carried out: 95° C. for 15 seconds (denaturation) followed by 60° C. for 1.5 minutes (annealing/extension).
Gene target quantities obtained by real time RT-PCR are normalized using either the expression level of GAPDH, a gene whose expression is constant, or by quantifying total RNA using RiboGreen™ (Molecular Probes, Inc. Eugene, Oreg.). GAPDH expression is quantified by real time RT-PCR, by being run simultaneously with the target, multiplexing, or separately. […]

Substance	% INHIB (inhibition of human apolipoprotein B mRNA levels) [%]
270987 (antisense e[5mC]*e[5mC]*eT*e[5mC]*e[5mC]*dA*dG*d[5mC]*dT*d[5mC]*dA*dA*d[5mC]*d[5mC]*dT*eT*eG*e[5mC]*eA*eG) [compound 270987]	0
270988 (antisense eG*eG*eG*eT*eT*dG*dA*dA*dG*d[5mC]*d[5mC]*dA*dT*dA*d[5mC]*eA*e[5mC]*e[5mC]*eT*e[5mC]) [compound 270988]	6
270989 (antisense e[5mC]*e[5mC]*eA*eG*e[5mC]*dT*dT*dG*dA*dG*d[5mC]*dT*d[5mC]*dA*dT*eA*e[5mC]*e[5mC]*eT*eG) [compound 270989]	64
270990 (antisense e[5mC]*e[5mC]*e[5mC]*eT*e[5mC]*dT*dT*dG*dA*dT*dG*dT*dT*d[5mC]*dA*eG*eG*eA*eT*eG) [compound 270990]	42
270991 (antisense eG*eA*eG*e[5mC]*eA*dG*dT*dT*dT*d[5mC]*d[5mC]*dA*dT*dA*d[5mC]*eA*e[5mC]*eG*eG*eT) [compound 270991]	21
270992 (antisense e[5mC]*e[5mC]*e[5mC]*eT*eT*d[5mC]*d[5mC]*dT*d[5mC]*dG*dT*d[5mC]*dT*dT*dG*eA*e[5mC]*eG*eG*eT) [compound 270992]	8
270993 (antisense eT*eT*eG*eA*eA*dG*d[5mC]*dG*dA*dT*d[5mC]*dA*d[5mC]*dA*d[5mC]*eT*eG*e[5mC]*e[5mC]*e[5mC]) [compound 270993]	69
270994 (antisense eG*e[5mC]*e[5mC]*eT*eT*dT*dG*dA*dT*dG*dA*dG*dA*dG*d[5mC]*eA*eA*eG*eT*eG) [compound 270994]	51
270995 (antisense eT*e[5mC]*e[5mC]*eT*e[5mC]*dT*dT*dA*dG*d[5mC]*dG*dT*d[5mC]*d[5mC]*dA*eG*eT*eG*eT*eG) [compound 270995]	40
270996 (antisense e[5mC]*e[5mC]*eT*e[5mC]*eT*d[5mC]*dA*dG*d[5mC]*dT*d[5mC]*dA*dG*dT*dA*eA*e[5mC]*e[5mC]*eA*eG) [compound 270996]	0
270997 (antisense eG*e[5mC]*eA*e[5mC]*eT*dG*dA*dG*dG*d[5mC]*dT*dG*dT*d[5mC]*d[5mC]*eA*e[5mC]*eA*e[5mC]*eT) [compound 270997]	24
270998 (antisense e[5mC]*eG*e[5mC]*eT*eG*dA*dT*d[5mC]*d[5mC]*d[5mC]*dT*d[5mC]*dG*d[5mC]*d[5mC]*eA*eT*eG*eT*eT) [compound 270998]	1
270999 (antisense eG*eT*eT*eG*eA*d[5mC]*d[5mC]*dG*d[5mC]*dG*dT*dG*dG*d[5mC]*dT*e[5mC]*eA*eG*e[5mC]*eG) [compound 270999]	76
271000 (antisense eG*e[5mC]*eA*eG*e[5mC]*dT*d[5mC]*d[5mC]*dT*dG*dG*dG*dT*d[5mC]*d[5mC]*e[5mC]*eT*eG*eT*eA) [compound 271000]	22
271001 (antisense e[5mC]*e[5mC]*e[5mC]*eA*eT*dG*dG*dT*dA*dG*dA*dA*dT*dT*dT*eG*eG*eA*e[5mC]*eA) [compound 271001]	53
271002 (antisense eA*eA*eT*e[5mC]*eT*d[5mC]*dG*dA*dT*dG*dA*dG*dG*dT*d[5mC]*eA*eG*e[5mC]*eT*eG) [compound 271002]	48

Substance	% INHIB (inhibition of human apolipoprotein B mRNA levels) [%]
271003 (antisense eG*eA*e[5mC]*eA*e[5mC]*d[5mC]*dA*dT*d[5mC]*dA*dG*dG*dA*dA*d[5mC]*eT*eT*eG*eA*e[5mC]) [compound 271003]	46
271004 (antisense eG*e[5mC]*eT*e[5mC]*e[5mC]*dT*d[5mC]*dT*d[5mC]*d[5mC]*d[5mC]*dA*dA*dG*dA*eT*eG*e[5mC]*eG*eG) [compound 271004]	10
271005 (antisense eG*eG*e[5mC]*eA*e[5mC]*d[5mC]*d[5mC]*dA*dT*d[5mC]*dA*dG*dA*dA*dG*e[5mC]*eA*eG*e[5mC]*eT) [compound 271005]	32
271006 (antisense eA*eG*eT*e[5mC]*e[5mC]*dG*dG*dA*dA*dT*dG*dA*dT*dG*dA*eT*eG*e[5mC]*e[5mC]*e[5mC]) [compound 271006]	42
271007 (antisense e[5mC]*eT*eG*eA*eG*d[5mC]*dA*dG*d[5mC]*dT*dT*dG*dA*d[5mC]*dT*eG*eG*eT*e[5mC]*eT) [compound 271007]	26
271008 (antisense e[5mC]*e[5mC]*e[5mC]*eG*eG*dT*d[5mC]*dA*dG*d[5mC]*dG*dG*dA*dT*dA*eG*eT*eA*eG*eG) [compound 271008]	37
271010 (antisense eT*eG*eT*e[5mC]*eA*d[5mC]*dA*dA*d[5mC]*dT*dT*dA*dG*dG*dT*eG*eG*e[5mC]*e[5mC]*e[5mC]) [compound 271010]	57
271011 (antisense eG*eT*e[5mC]*eT*eG*dG*d[5mC]*dA*dA*dT*d[5mC]*d[5mC]*d[5mC]*dA*dT*eG*eT*eT*e[5mC]*eT) [compound 271011]	51
271012 (antisense e[5mC]*e[5mC]*e[5mC]*eA*e[5mC]*dA*dG*dA*d[5mC]*dT*dT*dG*dA*dA*dG*eT*eG*eG*eA*eG) [compound 271012]	55
271013 (antisense eG*eA*eA*e[5mC]*eT*dG*d[5mC]*d[5mC]*d[5mC]*dA*dT*d[5mC]*dA*dA*dT*e[5mC]*eT*eT*eG*eA) [compound 271013]	19
271014 (antisense e[5mC]*e[5mC]*e[5mC]*eA*eG*dA*dG*dA*dG*dG*d[5mC]*d[5mC]*dA*dA*dG*e[5mC]*eT*e[5mC]*eT*eG) [compound 271014]	54
271015 (antisense eT*eG*eT*eG*eT*dT*d[5mC]*d[5mC]*d[5mC]*dT*dG*dA*dA*dG*d[5mC]*eG*eG*e[5mC]*e[5mC]*eA) [compound 271015]	43
271016 (antisense eA*e[5mC]*e[5mC]*e[5mC]*eA*dG*dA*dA*dT*d[5mC]*dA*dT*dG*dG*d[5mC]*e[5mC]*eT*eG*eA*eT) [compound 271016]	19
271017 (antisense eG*eG*eT*eG*e[5mC]*d[5mC]*dT*dG*dT*d[5mC]*dT*dG*d[5mC]*dT*d[5mC]*eA*eG*e[5mC]*eT*eG) [compound 271017]	30
271018 (antisense eA*eT*eG*eT*eG*dA*dA*dA*d[5mC]*dT*dT*dG*dT*d[5mC]*dT*e[5mC]*eT*e[5mC]*e[5mC]*e[5mC]) [compound 271018]	44
271019 (antisense eT*eA*eT*eG*eT*d[5mC]*dT*dG*d[5mC]*dA*dG*dT*dT*dG*dA*eG*eA*eT*eA*eG) [compound 271019]	15
